The text below walks through data of ChEMBL document CHEMBL1146046, “Synthesis and biological evaluations of sulfanyltriazoles as novel HIV-1 non-nucleoside reverse transcriptase inhibitors” (Bioorg Med Chem Lett, 2006).

Bounds are passed on as bounds.

Assay type in all cases: functional, organism-based
The subject of assay [1] is Human immunodeficiency virus 1. The assay can be described thus: Antiviral activity against HIV1.
Assay [2] deals with Human immunodeficiency virus 1. The assay can be described thus: Antiviral activity against HIV1 NNTRI resistant K103N mutant.
In assay [3] the test system is Human immunodeficiency virus 1. The assay can be described thus: Antiviral activity against HIV1 NNTRI resistant K103N/L100I mutant.
In assay [4] the test system is Human immunodeficiency virus 1. The assay can be described thus: Antiviral activity against HIV1 NNTRI resistant Y181C mutant.
Assay [5] deals with Human immunodeficiency virus 1. The assay can be described thus: Antiviral activity against HIV1 NNTRI resistant Y188L mutant.
The subject of assay [6] is Human immunodeficiency virus 1. The assay can be described thus: Antiviral activity against HIV1 NNTRI resistant L100I mutant.

For `COC(=O)c1ccc(NC(=O)CSc2nnc(C)n2-c2ccc(C)cc2)cc1`, in assay [1], the half-maximal effective concentration (EC50) is 0.822 µM and the half-maximal inhibitory concentration (IC50) is > 10 µM.
Regarding `Cc1ccc(-n2c(C)nnc2SCC(=O)Nc2ccc([N+](=O)[O-])cc2)cc1`, in assay [1], the concentration for a half-maximal effect (EC50) was > 10 µM and the half-maximal inhibitory concentration (IC50) is > 10 µM.
As for `Cc1ccc(NC(=O)CSc2nnc(C)n2-c2ccc(C)cc2)cc1`, in assay [1], the concentration for a half-maximal effect (EC50) is > 10 µM and the 50% inhibitory concentration (IC50) is > 10 µM.
As for `Cc1ccc(-n2c(C)nnc2SCC(=O)Nc2cccc(Br)c2)cc1`, in assay [1], the EC50 was > 10 µM and the half-maximal inhibitory concentration (IC50) was > 10 µM.
Take `Cc1ccc(-n2c(C)nnc2SCC(=O)Nc2ccccc2C#N)cc1`: in assay [1], the EC50 stood at 0.17 µM and the IC50 was > 10 µM.
`Cc1ccc(-n2c(C)nnc2SCC(=O)Nc2cccc([N+](=O)[O-])c2)cc1`: in assay [1], the EC50 was > 10 µM and the IC50 is > 10 µM.
For the compound `Cc1ccc(-n2c(C)nnc2SCC(=O)Nc2ccccc2Cl)cc1`, the EC50 is 0.065 µM in assay [2]; 0.003 µM in assay [1]; 0.182 µM in assay [3]; 0.023 µM in assay [4]; 4.31 µM in assay [5]. The half-maximal inhibitory concentration (IC50) in assay [1] was > 10 µM.
For the compound `Cc1ccc(-n2c(C)nnc2SCC(=O)Nc2cccc(C)c2C)cc1`, in assay [1], the concentration for a half-maximal effect (EC50) was found to be 0.128 µM and the concentration for half-maximal inhibition (IC50) is > 10 µM.
As for `Cc1nnc(SCC(=O)Nc2ccccc2Cl)n1-c1cccc2c1OCCO2`, the EC50 in assay [6] is 0.17 µM; in assay [2], 0.565 µM; in assay [1] it was 0.018 µM; in assay [4], 0.219 µM; in assay [5], > 3.33 µM. Further, in assay [1], the IC50 was > 10 µM.
For the compound `Cc1nnc(SCC(=O)Nc2ccccc2Cl)n1C`, in assay [1], the concentration for a half-maximal effect (EC50) was > 10 µM and the half-inhibitory concentration (IC50) is > 10 µM.
Turning to `Cc1ccc(-n2c(C)nnc2SCC(=O)Nc2ccc(Cl)cc2Cl)cc1`, the EC50 in assay [6] is 0.186 µM; in assay [2], 0.577 µM; in assay [1] it was 0.02 µM; in assay [4] it was 0.44 µM; in assay [5], > 3.33 µM. Also, the 50% inhibitory concentration (IC50) in assay [1] is > 10 µM.
As to `COc1ccccc1-n1c(C)nnc1SCC(=O)Nc1ccccc1Cl`, the concentration for a half-maximal effect (EC50) was 0.1 µM in assay [6]; 1.12 µM in assay [2]; 0.059 µM in assay [1]; 1.05 µM in assay [4]; > 1.65 µM in assay [5]. For the same compound, the concentration for half-maximal inhibition (IC50) in assay [1] was > 10 µM.
Regarding `Cc1ccc(-n2c(C)nnc2SCC(=O)Nc2cccc(C(F)(F)F)c2)cc1`, in assay [1], the concentration for a half-maximal effect (EC50) is 2.87 µM and the IC50 was > 10 µM.
Taken in the same sequence, the figures for `CCCCCCCCCNC(=O)CSc1nnc(C)n1-c1ccc(C)cc1` were > 10 µM and > 10 µM.
Taken in the same sequence, the figures for `Cc1ccc(-n2c(C)nnc2SCC(=O)Nc2ccc(Cl)cc2C)cc1` were 0.215 µM and > 10 µM.
On the same counts, the results for `Cc1ccc(-n2c(C)nnc2SCC(=O)Nc2ccc(Cl)cc2)cc1` are 1.36 µM and > 10 µM.
`O=C1Nc2ccc(Cl)cc2C(C#CC2CC2)(C(F)(F)F)O1` (single isomer, unassigned) [EFAVIRENZ]: the concentration giving a half-maximal response (EC50) in assay [6] turned out to be 0.013 µM; in assay [2], 0.019 µM. This compound also returned an IC50 in assay [1] of 10 µM.
Regarding `Cc1ccc(-n2c(C)nnc2SCC(=O)NC(C)(C)C)cc1`, in assay [1], the EC50 was > 10 µM and the IC50 is > 10 µM.
In the case of `Cc1ccc(-n2c(SCC(=O)Nc3ccccc3Cl)nnc2-c2ccncc2)cc1`, in assay [1], the response was half-maximal at 4.21 µM (EC50) and the 50% inhibitory concentration (IC50) was > 10 µM.
Take `Cc1ccc(-n2c(C)nnc2SCC(=O)Nc2ccccn2)cc1`: in assay [1], the concentration giving a half-maximal response (EC50) was > 10 µM and the concentration for half-maximal inhibition (IC50) was > 10 µM.
Regarding `COC(=O)c1ccccc1NC(=O)CSc1nnc(C)n1-c1ccc(C)cc1`, in assay [1], the EC50 was found to be 0.614 µM and the IC50 was > 10 µM.
`Cc1ccc(-n2c(C)nnc2SCC(=O)Nc2ccccc2Br)cc1`: in assay [1], the EC50 was > 10 µM and the IC50 is > 10 µM.
For the compound `Cc1ccc(-n2c(C)nnc2SCC(=O)Nc2ccccc2[N+](=O)[O-])cc1`, the concentration for a half-maximal effect (EC50) in assay [2] was 0.006 µM; in assay [1], 0.001 µM; in assay [3], 0.024 µM; in assay [4] it was 0.016 µM; in assay [5], 3.6 µM. Also, the IC50 in assay [1] is > 10 µM.
For the compound `Cc1ccc(-n2c(C)nnc2SCC(=O)Nc2ccccc2F)cc1`, the EC50 in assay [6] was 1.38 µM; in assay [2], 3.27 µM; in assay [1] it was 0.068 µM; in assay [4], 4.03 µM; in assay [5], > 10 µM. For the same compound, the IC50 in assay [1] is > 10 µM.
As for `Cc1ccc(-n2c(C)nnc2SCC(=O)Nc2ccccc2)cc1`, in assay [1], the midpoint of the response, the EC50, lay at 2.05 µM and the IC50 was > 10 µM.
Taken in the same sequence, the figures for `Cc1ccc(-n2c(C)nnc2SCC(=O)Nc2ccc(C#N)cc2)cc1` were > 10 µM and > 10 µM.
`Cc1ccc(-n2c(C)nnc2SCC(=O)N2CCOCC2)cc1`: in assay [1], the EC50 was > 10 µM and the IC50 was > 10 µM.
On to `Cc1ccnc2c1NC(=O)c1cccnc1N2C1CC1` [NEVIRAPINE], for which the IC50 in assay [1] was > 10 µM. Also, the EC50 in assay [4] and in assay [5] was > 10 µM throughout.
Take `Cc1ccc(-n2c(Cc3ccccc3)nnc2SCC(=O)Nc2ccccc2Cl)cc1`: in assay [1], the midpoint of the response, the EC50, lay at 1.43 µM and the 50% inhibitory concentration (IC50) is > 10 µM.
On the same counts, the results for `Cc1ccc(-n2c(C)nnc2SCC(=O)Nc2ccc3ccccc3c2)cc1` are 0.412 µM and > 10 µM.
Taken in the same sequence, the figures for `CC(=O)N1CCN(C(=O)CSc2nnc(C)n2-c2ccc(C)cc2)CC1` were > 10 µM and > 10 µM.
On the same counts, the results for `COc1ccccc1-c1nnc(SCC(=O)Nc2ccccc2Cl)n1-c1ccc(C)cc1` are 2.07 µM and > 10 µM.
Consider `Cc1ccc(-n2c(C)nnc2SCC(=O)Nc2ccncn2)cc1`, for which, in assay [1], the EC50 is > 10 µM and the IC50 was > 10 µM.
Turning to `COc1ccc(-n2c(C)nnc2SCC(=O)Nc2ccccc2Cl)cc1`, the half-maximal effective concentration (EC50) was 1.23 µM in assay [6]; 0.913 µM in assay [2]; 0.079 µM in assay [1]; 1.43 µM in assay [4]; > 3.33 µM in assay [5]. Also, the IC50 in assay [1] is > 10 µM.
In the case of `Cc1ccc(-n2c(C)nnc2SCC(=O)Nc2cc(Cl)ccc2Cl)cc1`, the concentration giving a half-maximal response (EC50) in assay [6] is 0.835 µM; in assay [2], 1.04 µM; in assay [1], 0.037 µM; in assay [4] it was 0.769 µM; in assay [5], > 10 µM. Further, in assay [1], the half-maximal inhibitory concentration (IC50) was > 10 µM.
With `Cc1nnc(SCC(=O)Nc2ccccc2Cl)n1-c1ccccc1`, in assay [1], the concentration giving a half-maximal response (EC50) is 0.31 µM and the half-inhibitory concentration (IC50) is > 10 µM.
On the same counts, the results for `CCn1c(C)nnc1SCC(=O)Nc1ccccc1Cl` are > 10 µM and > 10 µM.
With `Cc1ccc(-n2c(COc3ccccc3)nnc2SCC(=O)Nc2ccccc2Cl)cc1`, in assay [1], the EC50 amounted to 1.07 µM and the IC50 was > 10 µM.
On the same counts, the results for `Cc1ccc(-n2c(C)nnc2SCC(=O)Nc2ccc(Br)cc2)cc1` are > 10 µM and > 10 µM.
On the same counts, the results for `Cc1nnc(SCC(=O)Nc2ccccc2Cl)n1Cc1ccccc1` are 3.41 µM and > 10 µM.
Taken in the same sequence, the figures for `Cc1ccc(-n2c(C)nnc2SC/C(S)=N/c2ccccc2Cl)cc1` were > 10 µM and > 10 µM.
For `Cc1ccc(-n2c(C)nnc2SCC(=O)Nc2ccccc2C)cc1`, in assay [1], it took 0.112 µM to reach a half-maximal effect (EC50) and the half-maximal inhibitory concentration (IC50) is > 10 µM.
On to `COc1cccc(NC(=O)CSc2nnc(C)n2-c2ccc(C)cc2)c1`, for which the concentration for a half-maximal effect (EC50) turned out to be 0.031 µM in assay [6]; 0.082 µM in assay [2]; 0.022 µM in assay [1]; 0.161 µM in assay [4]; 2.19 µM in assay [5]. In assay [1], the half-inhibitory concentration (IC50) was > 10 µM.
As for `Cc1ccc(-n2c(C)nnc2SCC(=O)N(C)c2ccccc2Cl)cc1`, in assay [1], the EC50 is > 10 µM and the IC50 is > 10 µM.
`Cc1ccc(-n2c(C)nnc2SCC(=O)Nc2ccccc2C(F)(F)F)cc1`: the EC50 in assay [6] is 0.488 µM; in assay [2], 1.51 µM; in assay [1] it was 0.072 µM; in assay [4], 1.38 µM; in assay [5], > 10 µM. Also, the concentration for half-maximal inhibition (IC50) in assay [1] was > 10 µM.
Regarding `COc1ccc(NC(=O)CSc2nnc(C)n2-c2ccc(C)cc2)cc1`, in assay [1], the EC50 worked out at 1.84 µM and the IC50 was > 10 µM.
Taken in the same sequence, the figures for `COC(=O)c1cccc(NC(=O)CSc2nnc(C)n2-c2ccc(C)cc2)c1` were > 10 µM and > 10 µM.
In the case of `Cc1ccc(-n2c(C)nnc2SCC(=O)Nc2cccc(C#N)c2)cc1`, in assay [1], the concentration giving a half-maximal response (EC50) was > 10 µM and the IC50 is > 10 µM.
Regarding `Cc1ccc(-n2c(C)nnc2SCC(=O)N2CCCCC2)cc1`, in assay [1], the 50% effective concentration (EC50) was > 10 µM and the IC50 was > 10 µM.
In the case of `Cc1ccc(-n2c(SCC(=O)Nc3ccccc3Cl)nnc2-c2ccc(Cl)cc2)cc1`, in assay [1], the response was half-maximal at 3.78 µM (EC50) and the half-maximal inhibitory concentration (IC50) is > 10 µM.

One may read the EC50 as the concentration giving half of the maximal effect. For orientation: IC50 means the point on the concentration scale where inhibition reaches its midpoint. Low values mean inhibition by little substance, high ones a need for much substance.
